From ChEMBL document CHEMBL1926636, “Isoxazoles incorporated N-substituted decahydroquinolines: a precursor to the next generation antimicrobial drug” (2012)
In brackets after ≈: the same amount, converted by molar mass.

Assays:
[1] = system: Lysinibacillus sphaericus; experiment: Antibacterial activity against Bacillus sphaericus ATCC 7031 at 10 ug/mL after 24 hrs by disc diffusion method; format: functional; details: ATCC 7031, 24 h, read-out: IZ
Candida albicans [2] = experiment: Antifungal activity against Candida albicans ATCC 90028 by twofold serial dilution technique; format: functional
Escherichia coli [3] = experiment: Antibacterial activity against Escherichia coli ATCC 35218 at 10 ug/mL after 24 hrs by disc diffusion method; format: functional; details: ATCC 35218, 24 h, read-out: IZ
Aspergillus niger [4] = experiment: Antifungal activity against Aspergillus niger ATCC 16404 at 10 ug/mL after 72 hrs by agar cup plate method; format: functional; details: ATCC 16404, 72 h, read-out: IZ
Bacillus subtilis [5] = experiment: Antibacterial activity against Bacillus subtilis ATCC 6631 by twofold serial dilution technique; format: functional
Escherichia coli [6] = experiment: Antibacterial activity against Escherichia coli ATCC 35218 by twofold serial dilution technique; format: functional
Salmonella typhi [7] = experiment: Antibacterial activity against Salmonella typhi ATCC 6539 at 10 ug/mL after 24 hrs by disc diffusion method; format: functional, Salmonella enterica subsp. enterica serovar Typhi; details: Salmonella enterica, ATCC 6539, 24 h; read-out: IZ
Staphylococcus aureus [8] = experiment: Antibacterial activity against Staphylococcus aureus ATCC 6538 by twofold serial dilution technique; format: functional
Aspergillus fumigatus [9] = experiment: Antifungal activity against Aspergillus fumigatus ATCC 28212 by twofold serial dilution technique; format: functional
Aspergillus fumigatus [10] = experiment: Antifungal activity against Aspergillus fumigatus ATCC 28212 at 10 ug/mL after 72 hrs by agar cup plate method; format: functional; details: ATCC 28212, 72 h, read-out: IZ
Pseudomonas aeruginosa [11] = experiment: Antibacterial activity against Pseudomonas aeruginosa ATCC 9027 by twofold serial dilution technique; format: functional
Staphylococcus aureus [12] = experiment: Antibacterial activity against Staphylococcus aureus ATCC 6538 at 10 ug/mL after 24 hrs by disc diffusion method; format: functional; details: ATCC 6538, 24 h, read-out: IZ
Candida albicans [13] = experiment: Antifungal activity against Candida albicans ATCC 90028 at 10 ug/mL after 72 hrs by agar cup plate method; format: functional; details: ATCC 90028, 72 h, read-out: IZ
Candida albicans [14] = experiment: Antifungal activity against Candida albicans PYCC 3436 by twofold serial dilution technique; format: functional
Pseudomonas aeruginosa [15] = experiment: Antibacterial activity against Pseudomonas aeruginosa ATCC 9027 at 10 ug/mL after 24 hrs by disc diffusion method; format: functional; details: ATCC 9027, 24 h, read-out: IZ
Bacillus subtilis [16] = experiment: Antibacterial activity against Bacillus subtilis ATCC 6631 at 10 ug/mL after 24 hrs by disc diffusion method; format: functional; details: ATCC 6631, 24 h, read-out: IZ
Salmonella typhi [17] = experiment: Antibacterial activity against Salmonella typhi ATCC 6539 by twofold serial dilution technique; format: functional, Salmonella enterica subsp. enterica serovar Typhi; details: Salmonella enterica
Candida albicans [18] = experiment: Antifungal activity against Candida albicans PYCC 3436 at 10 ug/mL after 72 hrs by agar cup plate method; format: functional; details: PYCC 3436, 72 h, read-out: IZ
[19] = system: Lysinibacillus sphaericus; experiment: Antibacterial activity against Bacillus sphaericus ATCC 7031 by twofold serial dilution technique; format: functional
Aspergillus niger [20] = experiment: Antifungal activity against Aspergillus niger ATCC 16404 by twofold serial dilution technique; format: functional

In the case of c1ccc(CN2C(c3ccccc3)C3=C(NOC3c3cccnc3)C3CCCCC32)cc1 (stereo not drawn), the zone of inhibition at 10 µg/mL [1] was 13 mm, the MIC99 (Candida albicans [2]) was 50 µg/mL (≈ 118 µM) and the zone of inhibition at 10 µg/mL (Escherichia coli [3]) was 4 mm. For the same compound, the zone of inhibition at 10 µg/mL (Aspergillus niger [4]) was 8 mm, the MIC99 (Bacillus subtilis [5]) was 100 µg/mL (≈ 236 µM) and the MIC99 (Escherichia coli [6]) was 100 µg/mL (≈ 236 µM). The zone of inhibition at 10 µg/mL (Salmonella typhi [7]) was 11 mm, the MIC99 (Staphylococcus aureus [8]) was 50 µg/mL (≈ 118 µM) and the MIC99 (Aspergillus fumigatus [9]) was 12.5 µg/mL (≈ 29.5 µM). The zone of inhibition at 10 µg/mL (Aspergillus fumigatus [10]) was 6 mm, the MIC99 (Pseudomonas aeruginosa [11]) was 50 µg/mL (≈ 118 µM) and the zone of inhibition at 10 µg/mL (Staphylococcus aureus [12]) was 11 mm. For the same compound, the zone of inhibition at 10 µg/mL (Candida albicans [13]) was 17 mm, the MIC99 (Candida albicans [14]) was 12.5 µg/mL (≈ 29.5 µM) and the zone of inhibition at 10 µg/mL (Pseudomonas aeruginosa [15]) was 4 mm. For the same compound, the zone of inhibition at 10 µg/mL (Bacillus subtilis [16]) was 3 mm, the MIC99 (Salmonella typhi [17]) was 100 µg/mL (≈ 236 µM) and the zone of inhibition at 10 µg/mL (Candida albicans [18]) was 17 mm. The MIC99 [19] was 50 µg/mL (≈ 118 µM) and the MIC99 (Aspergillus niger [20]) was > 100 µg/mL.
With Clc1ccccc1C1ONC2=C1C(c1ccccc1)N(Cc1ccccc1)C1CCCCC21 (stereo not drawn) the zone of inhibition at 10 µg/mL [1] was 13 mm, the MIC99 (Candida albicans [2]) was 25 µg/mL (≈ 54.7 µM) and the zone of inhibition at 10 µg/mL (Escherichia coli [3]) was 7 mm. For the same compound, the zone of inhibition at 10 µg/mL (Aspergillus niger [4]) was 14 mm, the MIC99 (Bacillus subtilis [5]) was 50 µg/mL (≈ 109 µM) and the MIC99 (Escherichia coli [6]) was 25 µg/mL (≈ 54.7 µM). It also gave a zone of inhibition at 10 µg/mL (Salmonella typhi [7]) of 9 mm, an MIC99 (Staphylococcus aureus [8]) of 50 µg/mL (≈ 109 µM) and an MIC99 (Aspergillus fumigatus [9]) of 25 µg/mL (≈ 54.7 µM). For the same compound, the zone of inhibition at 10 µg/mL (Aspergillus fumigatus [10]) was 5 mm, the MIC99 (Pseudomonas aeruginosa [11]) was 25 µg/mL (≈ 54.7 µM) and the zone of inhibition at 10 µg/mL (Staphylococcus aureus [12]) was 12 mm. For the same compound, the zone of inhibition at 10 µg/mL (Candida albicans [13]) was 22 mm, the MIC99 (Candida albicans [14]) was 25 µg/mL (≈ 54.7 µM) and the zone of inhibition at 10 µg/mL (Pseudomonas aeruginosa [15]) was 6 mm. The zone of inhibition at 10 µg/mL (Bacillus subtilis [16]) was 5 mm, the MIC99 (Salmonella typhi [17]) was > 100 µg/mL and the zone of inhibition at 10 µg/mL (Candida albicans [18]) was 16 mm. For the same compound, the MIC99 [19] was 50 µg/mL (≈ 109 µM) and the MIC99 (Aspergillus niger [20]) was 100 µg/mL (≈ 219 µM).
Compound CC(=O)N1CCN(c2ccc(OCC3COC(Cn4ccnc4)(c4ccc(Cl)cc4Cl)O3)cc2)CC1 (stereo not drawn) [KETOCONAZOLE] has an MIC99 (Candida albicans [2]) of 25 µg/mL (≈ 47 µM), a zone of inhibition at 10 µg/mL (Aspergillus niger [4]) of 25 mm and an MIC99 (Aspergillus fumigatus [9]) of 7 µg/mL (≈ 13.2 µM). The zone of inhibition at 10 µg/mL (Aspergillus fumigatus [10]) was 10 mm, the zone of inhibition at 10 µg/mL (Candida albicans [13]) was 22 mm and the MIC99 (Candida albicans [14]) was 7.8 µg/mL (≈ 14.7 µM). For the same compound, the zone of inhibition at 10 µg/mL (Candida albicans [18]) was 22 mm and the MIC99 (Aspergillus niger [20]) was 50 µg/mL (≈ 94.1 µM).
Work on Clc1ccc(C2ONC3=C2C(c2ccccc2)N(Cc2ccccc2)C2CCCCC32)cc1 (stereo not drawn) yielded a zone of inhibition at 10 µg/mL [1] of 16 mm, an MIC99 (Candida albicans [2]) of 25 µg/mL (≈ 54.7 µM) and a zone of inhibition at 10 µg/mL (Escherichia coli [3]) of 4 mm. For the same compound, the zone of inhibition at 10 µg/mL (Aspergillus niger [4]) was 16 mm, the MIC99 (Bacillus subtilis [5]) was 50 µg/mL (≈ 109 µM) and the MIC99 (Escherichia coli [6]) was 50 µg/mL (≈ 109 µM). The zone of inhibition at 10 µg/mL (Salmonella typhi [7]) was 9 mm, the MIC99 (Staphylococcus aureus [8]) was 50 µg/mL (≈ 109 µM) and the MIC99 (Aspergillus fumigatus [9]) was 50 µg/mL (≈ 109 µM). For the same compound, the zone of inhibition at 10 µg/mL (Aspergillus fumigatus [10]) was 4 mm, the MIC99 (Pseudomonas aeruginosa [11]) was 25 µg/mL (≈ 54.7 µM) and the zone of inhibition at 10 µg/mL (Staphylococcus aureus [12]) was 14 mm. It also gave a zone of inhibition at 10 µg/mL (Candida albicans [13]) of 21 mm, an MIC99 (Candida albicans [14]) of 12.5 µg/mL (≈ 27.4 µM) and a zone of inhibition at 10 µg/mL (Pseudomonas aeruginosa [15]) of 5 mm. The zone of inhibition at 10 µg/mL (Bacillus subtilis [16]) was 6 mm, the MIC99 (Salmonella typhi [17]) was > 100 µg/mL and the zone of inhibition at 10 µg/mL (Candida albicans [18]) was 18 mm. It also gave an MIC99 [19] of 25 µg/mL (≈ 54.7 µM) and an MIC99 (Aspergillus niger [20]) of 100 µg/mL (≈ 219 µM).
O=[N+]([O-])c1cccc(C2ONC3=C2C(c2ccccc2)N(Cc2ccccc2)C2CCCCC32)c1 (stereo not drawn) was tested, and the zone of inhibition at 10 µg/mL [1] was 9 mm, the MIC99 (Candida albicans [2]) was 25 µg/mL (≈ 53.5 µM) and the zone of inhibition at 10 µg/mL (Escherichia coli [3]) was 5 mm. The zone of inhibition at 10 µg/mL (Aspergillus niger [4]) was 21 mm, the MIC99 (Bacillus subtilis [5]) was 50 µg/mL (≈ 107 µM) and the MIC99 (Escherichia coli [6]) was 50 µg/mL (≈ 107 µM). The zone of inhibition at 10 µg/mL (Salmonella typhi [7]) was 8 mm, the MIC99 (Staphylococcus aureus [8]) was 100 µg/mL (≈ 214 µM) and the MIC99 (Aspergillus fumigatus [9]) was 12.5 µg/mL (≈ 26.7 µM). For the same compound, the zone of inhibition at 10 µg/mL (Aspergillus fumigatus [10]) was 5 mm, the MIC99 (Pseudomonas aeruginosa [11]) was 25 µg/mL (≈ 53.5 µM) and the zone of inhibition at 10 µg/mL (Staphylococcus aureus [12]) was 8 mm. The zone of inhibition at 10 µg/mL (Candida albicans [13]) was 24 mm, the MIC99 (Candida albicans [14]) was 25 µg/mL (≈ 53.5 µM) and the zone of inhibition at 10 µg/mL (Pseudomonas aeruginosa [15]) was 5 mm. The zone of inhibition at 10 µg/mL (Bacillus subtilis [16]) was 6 mm, the MIC99 (Salmonella typhi [17]) was > 100 µg/mL and the zone of inhibition at 10 µg/mL (Candida albicans [18]) was 16 mm. The MIC99 [19] was 100 µg/mL (≈ 214 µM) and the MIC99 (Aspergillus niger [20]) was 100 µg/mL (≈ 214 µM).
In the case of O=[N+]([O-])c1ccc(C2ONC3=C2C(c2ccccc2)N(Cc2ccccc2)C2CCCCC32)cc1 (stereo not drawn), the zone of inhibition at 10 µg/mL [1] was 14 mm, the MIC99 (Candida albicans [2]) was 50 µg/mL (≈ 107 µM) and the zone of inhibition at 10 µg/mL (Escherichia coli [3]) was 5 mm. It also gave a zone of inhibition at 10 µg/mL (Aspergillus niger [4]) of 13 mm, an MIC99 (Bacillus subtilis [5]) of 100 µg/mL (≈ 214 µM) and an MIC99 (Escherichia coli [6]) of 50 µg/mL (≈ 107 µM). The zone of inhibition at 10 µg/mL (Salmonella typhi [7]) was 10 mm, the MIC99 (Staphylococcus aureus [8]) was 50 µg/mL (≈ 107 µM) and the MIC99 (Aspergillus fumigatus [9]) was 12.5 µg/mL (≈ 26.7 µM). For the same compound, the zone of inhibition at 10 µg/mL (Aspergillus fumigatus [10]) was 6 mm, the MIC99 (Pseudomonas aeruginosa [11]) was 12.5 µg/mL (≈ 26.7 µM) and the zone of inhibition at 10 µg/mL (Staphylococcus aureus [12]) was 11 mm. For the same compound, the zone of inhibition at 10 µg/mL (Candida albicans [13]) was 19 mm, the MIC99 (Candida albicans [14]) was 50 µg/mL (≈ 107 µM) and the zone of inhibition at 10 µg/mL (Pseudomonas aeruginosa [15]) was 6 mm. It also gave a zone of inhibition at 10 µg/mL (Bacillus subtilis [16]) of 4 mm, an MIC99 (Salmonella typhi [17]) of 100 µg/mL (≈ 214 µM) and a zone of inhibition at 10 µg/mL (Candida albicans [18]) of 12 mm. The MIC99 [19] was 50 µg/mL (≈ 107 µM) and the MIC99 (Aspergillus niger [20]) was 100 µg/mL (≈ 214 µM).
